Assay results as given in patent US9994566B2, “Compound of 5-hydroxyl-1,7-naphthyridine substituted by aryl or heteroaryl, preparation method thereof and pharmaceutical use thereof” (SHENYANG SUNSHINE PHARMACEUTICAL CO. LTD., priority 2015, dated 2018).
Where “and” joins values, the source holds several entries; their conditions need not be identical. Equal entries are not always repeated.

Columns and labels:
hepatoma cells Hep3B = assay: Promotion of erythropoietin (EPO) expression in hepatoma cells Hep3B in vitro (ELISA); type: cell-based, Human; conditions: Hep3B supernatant, 24 hours, test doses 100 μmol/L and 10 μmol/L (dose of the tabulated value not given)
From the text: Biological Example 1: Development and Screening of In Vitro Detection Methods: Promotion of Erythropoietin Expression in Hepatoma Cells Hep3B In Vitro by HIF-PHD2 Inhibitor Compounds
The complete medium for culture of Experimental hepatoma cells Hep3B (China Center for Type Culture Collection, CCTCC) was MEM (Cat# GNM 41500, GIBCO, provided by Hangzhou Genom Biopharmaceutical Technology Co., Ltd) supplemented with 10% serum FBS (Cat#10099-141, GIBCO) and 1% P/S (Cat#GNM15140, provided by Hangzhou Genom Biopharmaceutical Technology Co., Ltd). Cells were cultured in a 37° C., 5% CO2 incubator. Experimental reagents included dimethyl sulfoxide (for molecular biology, >=99.9%, Catalog # D8418) purchased from Sigma. The ELISA kit was purchased from Quantikine IVD ELISA, Human Erythropoietin (R&D, DEP00). The test control AKB-6548 was prepared by the inventors or obtained by commercial purchase. The test substance was stored at −20° C. in the dark.
The test substance and the positive control substance were fully dissolved in sterile water or dimethylsulfoxide under dark conditions and prepared into a stock solution at a concentration of 10^−1 mol/L or 10^−2 mol/L. Each of the stock solutions was stored at −20° C. MEM medium containing 0.5% FBS was used as a diluent to dilute the stock solution of the test substance, to prepare a diluted test substance at a concentration of 100 μmol/L and 10 μmol/L. To a 96-well culture plate was added 200 μl/well (1.5 or 2.0×10^4 cells/well) of hepatoma cells Hep3B complete medium suspension and incubated overnight at 37° C. in a 5% CO2 incubator. The solution in the 96-well culture plate was removed and the cells were washed once with the MEM medium containing 0.5% FBS. 200 μl/well of the test substance was added in the dark, at a dose of 100 μmol/L and 10 μmol/L, and each dose set 2 wells, a test well and a spare well. A cell control well was prepared by replacing the test solution with the diluent (without test substance and solvent). A solvent control well was prepared by replacing the test solution with the diluent containing the corresponding concentration of solvent (dimethylsulfoxide) (without test substance). They were cultured in a 5% CO2 incubator at 37° C. for 24 hours. The supernatant was absorbed as a sample and cryopreserved at −20° C. for use. 100 μl/well of stop solution was added. OD value was detected by microplate reader A450 nm-A600 nm. The expression level of EPO (mIU/mL) promoted by the test substance was obtained according to the standard curve.

[1] = target: HIF Prolyl hydroxylases 2 (PHD2) (Homo sapiens, UniProt Q9GZT9); assay: PHD2 inhibition, fluorescence polarization (FP) detection of HIF-1α / VBC complex interaction; type: biochemical; conditions: PHD2 0.5 μg/μl, FAM-HIF (556-575) 1 μM, 30 minutes room temperature
Sequence of HIF Prolyl hydroxylases 2 (PHD2) (Q9GZT9 whole entry, species assumed): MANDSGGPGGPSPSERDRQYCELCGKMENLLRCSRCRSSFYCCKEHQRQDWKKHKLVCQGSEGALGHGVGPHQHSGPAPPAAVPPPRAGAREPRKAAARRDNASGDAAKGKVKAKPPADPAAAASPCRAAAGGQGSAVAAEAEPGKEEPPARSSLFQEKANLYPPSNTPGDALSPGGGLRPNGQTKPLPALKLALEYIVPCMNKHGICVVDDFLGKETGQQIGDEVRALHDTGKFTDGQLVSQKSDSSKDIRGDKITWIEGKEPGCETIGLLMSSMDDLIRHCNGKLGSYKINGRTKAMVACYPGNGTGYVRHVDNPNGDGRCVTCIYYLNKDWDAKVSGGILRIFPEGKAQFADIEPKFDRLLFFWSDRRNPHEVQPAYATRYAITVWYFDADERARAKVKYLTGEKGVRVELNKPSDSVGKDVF
Protocol: The interaction between hypoxia-inducible factor HIF-1α and VBC complex (von Hippel-Lindau protein-Elongin B-Elongin C, VBC) was detected by Fluorescence polarization (FP) method, to measure the enzyme inhibitory activity of the HIF Prolyl hydroxylases 2 (PHD2) inhibitor compounds.
Subsequently, the desired concentration of the test compound or the positive compound was added (the compound was replaced by the buffer in the negative control and the positive control). Finally, PHD2 was added at a final concentration of 0.5 μg/μl (PHD2 was replaced by the buffer in the negative control). They were mixed well and allowed to stand at room temperature for 30 minutes in the dark followed by 95° C. water bath for 1 minute, and then the reaction was terminated. After the temperature drops to room temperature, the sample was prepared well for use. EBC buffer (50 mM Tris.HCl, 120 mM NaCl, 0.5% NP-40) was added to the corresponding wells of a black 96-well test plate. A GST-VBC complex was added to the corresponding test wells at a final concentration of 300 nM (using the wells containing only EBC buffer as blank wells). Subsequently, the corresponding PHD2 prolyl hydroxylation reaction sample was added in the dark as a substrate with a final concentration of 100 nM. After mixing well, the lateral and longitudinal fluorescence intensity values were measured using a full-wavelength multifunctional microplate reader (TECAN infinite M1000) at an excitation wavelength of […] and an emission wavelength of 518 nm.
The fluorescence polarization (mP) was calculated: mP=1000×(lateral value−G factor×longitudinal value)/(lateral value+G factor×longitudinal value) wherein, lateral value=lateral fluorescence intensity value of test well−lateral fluorescence intensity value of blank well, longitudinal value=longitudinal fluorescence intensity value of test well−longitudinal fluorescence intensity value of blank well, […]
The IC50 was calculated using the non-linear regression data analysis method of Graphpad Prism 4.0 software ([…]).

male Balb/c mice = assay: Effect on increasing erythrocyte of normal mice: reticulocyte (RETIC) count; type: in vivo; conditions: 25 mg/kg, oral, once a day × 3, four hours after the last administration; for RETIC, individual mice (Mice No. 1-8): one value per mouse; for RETIC, Average: orbital blood
Protocol: Biological Example 3: Effect of the Compounds of the Present Invention on Increasing Erythrocyte of Normal Mice
80 male Balb/c mice were divided into 11 groups, with 8 animals for each drug group, 10 animals for blank control group. Drug group: AKB-6548, 100 mg/kg, oral administration, once a day×3; FG-4592, 25 mg/kg, oral administration, once a day×3; EPO, 100 IU/kg, Day 1 and Day 3, subcutaneous injection, as positive control groups. Each of the compounds of the present invention was orally administrated at 25 mg/kg, once a day×3. Four hours after the last administration, orbital blood of all animals were collected and treated with EDTA-K2 anticoagulant, and reticulocytes (RETIC) were counted with a blood cell automated analyzer.

Compound | EPO level of the test substance (hepatoma cells Hep3B) | IC50 [1] | RETIC, individual mice (Mice No. 1-8) (male Balb/c mice) | RETIC, Average (male Balb/c mice)
O=C(O)CNC(=O)c1ncc2nc(-c3cccc(Cl)c3)ccc2c1O [Compound 6, 2-{5-hydroxy-[2-(3-chloro)-phenyl]-[1,7]-naphthyridine-6-formamido} acetic acid] | 2.268 mIU/mL | 0.41 µM | 5.2 (2×) and 4.8 and 6.3 and 4.7 and 6.4 and 3.9 and 5.4 | 5.24
O=C(O)CNC(=O)c1ncc2nc(-c3ccc(C(F)(F)F)cc3)ccc2c1O [Compound 23, 2-{5-hydroxy-[2-(4-trifluoromethyl)-phenyl]-[1,7]-napthyridine-6-formamido} acetic acid] | 0.72 mIU/mL | 5.2 µM | 2.9 and 3.2 (3×) and 3 and 5.1 and 9.1 | 4.24
